# Assay results published in patent US11981669B2, “1,7-naphthyridine derivative and preparation method and use therefor” (CSPC ZHONGQI PHARMACEUTICAL TECHNOLOGY (SHIJIAZHUANG) CO., …, priority 2018, dated 2024).
# Marks after values point to notes of the source that are not given here.
# Legend:
# hERG channels = hERG channels (Homo sapiens (Human), UniProt Q12809); assay: cell-based; format: cell-based; settings: for Inhibitory effect on hERG current at the highest test concentration: human, 30 μM
# Protocol: Whole-cell patch clamp technique was used to record hERG current. A cell suspension was added to a 35 mm Petri dish, and the dish was then placed on an inverted microscope stage. After the adherence of cells, they were perfused with extracellular fluid at a flow rate of 1-2 mL/min. A glass microelectrode was drawn by a microelectrode puller in two steps, and the pipette tip resistance was between 2-5 MΩ. After establishing the whole cell recording, the clamp potential was held at −80 mV, followed by depolarization to +60 mV when given voltage stimulation and then repolarization to −50 mV to elicit hERG tail current. All recordings were performed after the current was stable. Extracellular perfusion administration started from a low concentration, staying for 5-10 min at each concentration until the current was stable, and then cells were further perfused with the next concentration.
# PHD2 = PHD2 (Homo sapiens (Human), UniProt Q9GZT9); assay: PHD enzyme assay (Eu-VBC TR-fluorescence); format: biochemical
# Protocol: VHL/elongin B/elongin C were constructed, expressed and purified, and VHL was labeled. PHD1, PHD2 and PHD3 were constructed, expressed and purified. VBC protein was labeled with DELFIA Eu-Labeling Kit. A NeutrAvidin 96-well plate was blocked after the addition of 200 μL Blocker Casein to each well, followed by incubation for 30 min. Each well was washed 3 times by adding 200 μL of washing buffer each time. […] Each well was washed 3 times by adding 200 μL of washing buffer each time. A 1 mM Biotin solution was prepared with Blocker Casein, and 100 μL of the solution was added to each well, followed by incubation for 30 min. Each well was washed 3 times by adding 200 μL of washing buffer each time. A 20× compound solution was prepared with PHD reaction buffer, with the final concentration of DMSO being 1%. […] After mixing homogeneously, the wells were incubated for 60 min. Each well was washed 3 times by adding 200 μL of washing buffer each time A 1 ng/μL Eu-VBC solution was prepared with Eu-VBC binding buffer, and 100 μL of the solution was added to each well, followed by incubation for 60 min. Each well was washed 6 times by adding 200 μL DELFIA Wash Concentrate each time. 100 μL DELFIA Enhancement Solution was added to each well. […] The flurescence of the sample wells was recorded as FLUsample, the flurescence of the full active wells was recorded as FLU100%, and the flurescence of the blank well was recorded as FLU0%.
# HIF-2α = assay: Expression of HIF-2α protein in Hep3B cells (western blot, grayscale analysis); format: cell-based, Human; settings: for fold induction at 30 µM: Homo sapiens, 2 h, compound at 30 μM, 10 μM and 3 μM, read-out: HIF-2α level of the compound of the present disclosure/HIF-2α level of blank control
# Protocol: A test compound was dissolved in dimethyl sulfoxide into a 100 mM stock solution, and then was diluted with 0.5% FBS-containing DMEM medium into 30 μM, 10 μM and 3 μM for later use. Human liver cancer cells Hep3B were seeded in a six-well plate at a density of 2.25*10^5 cells/well, 2 mL per well. After cultivation overnight, the cells were treated with compounds at different concentrations for 2 h. The proteins were extracted for western blot and further grayscale analysis.
# [1] = test system: rats with residual kidney; assay: SD rat residual kidney experiment; format: in vivo, SD rats; design: Hematocrit / Alanine aminotransferase / Glutamic-oxalacetic transaminase: unit not given here; settings: for Red blood cells / Alanine aminotransferase / Glutamic-oxalacetic transaminase / Hematocrit / Hemoglobin / Hepcidin: three times each week, 15 times, x ± sd; for Red blood cells: blood 24 hours after last administration; for Effect on glutamic-oxalacetic transaminase / Effect on liver glutamic-pyruvic aminotransferase: compared with the blank control group
# Protocol: 79 SD rats were subjected to residual kidney surgery after anesthesia (left kidney was resected, one third of the right kidney was left, and the resected kidney part was weighed to confirm the surgical error). After 4 weeks, 45 surviving rats were subjected to blood cell dection and then assigned according to the HCT value 37 rats in good condition were selected and divided into the following groups: Link-118 (5, 10 mg/kg), Link-121 (5, 10 mg/kg), and FG-4592 (10 mg/kg), 6 rats in each treatment group, and 7 in the model group. 4 rats were assigned to the blank control group. The rats were administered three times each week (administered on Monday, Wednesday, and Friday), for 15 times, and blood was taken 24 hours after the last administration (tested by blood routine, blood biochemistry, hepcidin kit).
# hERG channels, sequence (Q12809 whole entry, the tested form may be a part): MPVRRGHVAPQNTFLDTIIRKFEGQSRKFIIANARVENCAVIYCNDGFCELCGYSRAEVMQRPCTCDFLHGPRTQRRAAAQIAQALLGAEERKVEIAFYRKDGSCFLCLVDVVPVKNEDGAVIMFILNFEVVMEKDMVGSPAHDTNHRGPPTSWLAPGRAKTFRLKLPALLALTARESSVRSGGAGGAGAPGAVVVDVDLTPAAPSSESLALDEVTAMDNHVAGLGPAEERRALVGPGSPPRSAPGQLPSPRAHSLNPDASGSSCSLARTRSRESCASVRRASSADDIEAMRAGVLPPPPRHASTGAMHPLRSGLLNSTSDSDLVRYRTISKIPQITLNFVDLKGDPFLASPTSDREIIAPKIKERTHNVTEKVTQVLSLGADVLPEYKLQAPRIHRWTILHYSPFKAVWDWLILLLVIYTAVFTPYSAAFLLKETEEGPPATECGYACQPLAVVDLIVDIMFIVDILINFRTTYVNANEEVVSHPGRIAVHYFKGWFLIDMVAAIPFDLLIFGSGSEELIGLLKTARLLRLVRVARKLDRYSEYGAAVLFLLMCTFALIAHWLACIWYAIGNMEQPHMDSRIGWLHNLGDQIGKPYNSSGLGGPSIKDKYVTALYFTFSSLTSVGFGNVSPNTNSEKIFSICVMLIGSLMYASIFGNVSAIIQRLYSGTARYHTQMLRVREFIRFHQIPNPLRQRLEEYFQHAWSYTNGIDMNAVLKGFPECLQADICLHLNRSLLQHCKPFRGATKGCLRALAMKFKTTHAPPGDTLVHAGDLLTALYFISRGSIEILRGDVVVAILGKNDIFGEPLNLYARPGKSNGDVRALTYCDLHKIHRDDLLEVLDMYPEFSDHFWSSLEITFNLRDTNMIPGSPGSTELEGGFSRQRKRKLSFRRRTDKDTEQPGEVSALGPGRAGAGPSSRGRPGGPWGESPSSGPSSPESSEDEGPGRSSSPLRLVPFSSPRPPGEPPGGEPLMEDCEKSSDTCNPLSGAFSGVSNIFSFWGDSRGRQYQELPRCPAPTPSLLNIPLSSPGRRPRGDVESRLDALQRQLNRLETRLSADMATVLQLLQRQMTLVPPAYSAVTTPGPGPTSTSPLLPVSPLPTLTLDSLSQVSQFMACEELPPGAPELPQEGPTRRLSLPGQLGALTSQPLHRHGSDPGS
# PHD2, sequence (Q9GZT9 whole entry): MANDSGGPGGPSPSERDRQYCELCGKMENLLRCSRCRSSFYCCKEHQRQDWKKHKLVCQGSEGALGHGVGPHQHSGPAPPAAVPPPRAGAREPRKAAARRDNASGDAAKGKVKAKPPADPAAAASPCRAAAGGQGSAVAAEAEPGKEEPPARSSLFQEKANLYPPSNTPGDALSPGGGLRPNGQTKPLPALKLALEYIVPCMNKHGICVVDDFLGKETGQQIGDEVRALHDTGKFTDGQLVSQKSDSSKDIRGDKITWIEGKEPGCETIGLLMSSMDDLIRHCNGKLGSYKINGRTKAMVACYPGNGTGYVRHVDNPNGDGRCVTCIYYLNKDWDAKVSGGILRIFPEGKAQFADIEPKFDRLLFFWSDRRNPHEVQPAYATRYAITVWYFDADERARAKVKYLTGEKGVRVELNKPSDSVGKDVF
Effect on PHD2 compared with compounds of Comparative Examples 1-3 (PHD2),IC50 (PHD2),Alanine aminotransferase ([1]; 5 mg/kg),Glutamic-oxalacetic transaminase ([1]; 5 mg/kg),Alanine aminotransferase ([1]; 10 mg/kg),Glutamic-oxalacetic transaminase ([1]; 10 mg/kg),Effect on glutamic-oxalacetic transaminase [1],Effect on liver glutamic-pyruvic aminotransferase [1],SMILES,IC50 (hERG channels),Inhibitory effect on hERG current at the highest test concentration (hERG channels),HIF-2α protein expression compared with blank control (HIF-2α),fold induction at 30 µM (HIF-2α),Red blood cells ([1]; 5 mg/kg),Hematocrit ([1]; 5 mg/kg),Hemoglobin ([1]; 5 mg/kg),Hepcidin ([1]; 5 mg/kg),Red blood cells ([1]; 10 mg/kg),Hematocrit ([1]; 10 mg/kg),Hemoglobin ([1]; 10 mg/kg),Hepcidin ([1]; 10 mg/kg),further results
better effect,207 nM,37.83 ± 1.60,116.50 ± 14.43,35.50 ± 6.28,113.67 ± 2123,no significant effect,no significant effect,"O=C(O)CNC(=O)c1nc(Cl)c2nc(Oc3ccccc3)ccc2c1O [Link-118, 2-(2-phenoxy-5-hydroxy-8-chloro-1,7-naphthyridine-6-formamido) Acetic Acid]",> 30000 nM,far from the IC50 value,higher than that of the blank control,4.5 to 8.5,8.05 ± 0.46** 10^12/L,45.88 ± 2.87,164 ± 10.99 g/L,2.5808 ± 1.0573 ng/mL,9.61 ± 1.06** 10^12/L,57.2 ± 6.67,203.83 ± 22.83 g/L,2.4472 ± 0.513 ng/mL,Effect on HCT in rats with residual kidney ([1]; compared with the model group): significantly increase; Effect on HGB in rats with residual kidney ([1]; compared with the model group): significantly increase; Effect on RBC in rats with residual kidney ([1]; compared with the model group): significantly increase; Effect on hepcidin in rats with residual kidney ([1]; compared with the model group): significantly inhibit; Efficacy compared with FG-4592 at the same dose ([1]; rats with residual kidney): better than that of FG-4592
better effect,353 nM,56.40 ± 25.89,130.80 ± 3126,47.5 ± 7.23,12125 ± 16.11,no significant effect,no significant effect,"O=C(O)CNC(=O)c1nc(Br)c2nc(Oc3ccccc3)ccc2c1O [Link-121, 2-(2-phenoxy-5-hydroxy-8-bromo-1,7-naphthyridine-6-formamido) Acetic Acid]",> 30000 nM,far from the IC50 value,higher than that of the blank control,4.5 to 8.5,7.68 ± 0.46 10^12/L,43 ± 2.26,150.60 ± 8.62 g/L,2.8289 ± 0.7597 ng/mL,8.12 ± 1.11 10^12/L,46.86 ± 629,163.40 ± 24.44 g/L,2.5494 ± 1.3532 ng/mL,Effect on HCT in rats with residual kidney ([1]; compared with the model group): significantly increase; Effect on HGB in rats with residual kidney ([1]; compared with the model group): significantly increase; Effect on hepcidin in rats with residual kidney ([1]; compared with the model group): reduced
